From patent publication EP3748362A1, “IN VITRO METHOD FOR DETECTING RENAL DISEASE” (Fundacion Instituto De Investigacion Sanitaria Fundacion …, priority 2019, dated 2020)

What was measured:
NF-κB2 [1] = assay: Non-canonical NF-κB2 activation (western blot) in TWEAK-stimulated HK2 cells; type: cell-based, Human; settings: 12 µM paricalcitol for 48 hours, TWEAK 100 ng/ml 6 hours
Protocol: Human kidney proximal tubule epithelial cells (HK2 cell line, ATCC CRL-2190) were grown in RPMI 1640 with 10% fetal bovine serum (FBS), 1% glutamine, 100 U/ml penicillin, 100 µg/ml streptomycin, 5 µg/ml insulin-transferrin-selenite and 36 ng/ml hydrocortisone in 5% CO2 at 37° C. When cells reached 60 to 70% confluence, they were serum-depleted for 24 hours before the experiment.
Cells were stimulated with 100ng/ml recombinant human soluble TWEAK (Millipore) or p-200 µg/ml cresyl-sulfate (Raymond Vanholder and Griet Glorieux, University of Gent, Belgium). Concentrations of TWEAK and p-cresyl-sulfate were based on previously published dose-response experiments (Poveda et al. 2014; Sanz et al. 2008). In some experiments cells were preincubated for 48 hours with the paricalcitol 12 µmol/L (Abbott) prior to stimulation. DMSO, used as a solvent in some cases, had no effect on cell viability or on gene expression levels.
For western blot, cell (25 µg/lane) and kidney (100-150 µg/lane) protein extracts were separated on 6%-12% polyacrylamide-SDS gels under reducing conditions. […] Autoradiographs were scanned using the Gel Doc™ EZ imager and analyzed with the Image Lab 3.0 software (BioRad).

NF-κB2 [2] = assay: Non-canonical NF-κB2 activation and NF-κB2 targets in kidneys of TWEAK-injected mice; type: in vivo
Protocol: All animal procedures were performed according to the guidelines of animal research in the European Community and with prior approval by the Ethics Committee of the Health Research of the IIS-Fundacion Jiménez Díaz. For in vivo studies, mice received a daily intraperitoneal injection of the VDRA Paricalcitol starting 48 hours prior to induction of kidney damage.
At the time of sacrifice, animals were anesthetized with 5 mg/kg xylazine (Rompun, Bayer AG) and 35 mg/kg ketamine (Ketolar, Pfizer) and the kidneys perfused in situ with cold saline before removal. Then, kidney portions were fixed in formalin buffer for immunohistochemistry studies or immediately frozen in liquid nitrogen for gene and protein studies.
TWEAK administration: C57BL/6 female mice (9-12 weeks, weight 20 g, 7-8 animals per group), received a single intraperitoneal injection of 0.5 µg TWEAK dissolved in saline and were sacrificed 24 hours later, as previously described (Sanz et al. 2008). Controls were injected with the saline vehicle (n=8-10 mice per group). TWEAK endotoxin level were <0.1 ng/mg, confirmed by MALDI-TOF. Some animals received paricalcitol 750 ng/kg/day, or the NF-κB2 inhibitor SN52, 0.7 mg/mouse/day, starting 48 hours before TWEAK administration. Animals were sacrificed 24 hours later. The dose of paricalcitol was chosen based on prior experience in mild inflammatory kidney conditions.
Paraffin-embedded kidney sections (3 µm) were stained using conventional methods. Antigen retrieval was performed by PTlink link system (Dako Diagnostics) with sodium citrate buffer (10 mmol/L) adjusted to pH 6-9 depending on the immunohistochemical marker, followed by immunohistochemical staining in a Dako Autostainer. Steps: 1) endogenous peroxidase blockade; 2) primary antibodies incubation; anti-CD3 (1:300; Dako) or anti-F4/80 (1:5000; Serotec); NF-κB p-p65 (1:200; Cell Signalling); NF-κB2 p52 (1:50; Cell Signaling); RelB (1:50; Santa Cruz Biotechnology); CCL21 (1:90; Santa Cruz Biotechnology); 3) washing; 4) DUOFLEX Doublestain EnVision™ treatment, using 3,3'-diaminobenzidine as chromogen. For F4/80 staining a rabbit anti-rat linker was used before EnVision. Sections were counterstained with Carazzi's hematoxylin. […] For each sample (processed by duplicate in a blinded manner), the average value was obtained from the analysis of 4 fields (20X objective) as density/mm2 or percentage stained area vs total analyzed area. Data are expressed as fold increase over control mice, as mean ± SEM of 8-10 animals per group. […]
For western blot, cell (25 µg/lane) and kidney (100-150 µg/lane) protein extracts were separated on 6%-12% polyacrylamide-SDS gels under reducing conditions. […] Autoradiographs were scanned using the Gel Doc™ EZ imager and analyzed with the Image Lab 3.0 software (BioRad). […]

## C[C@H](/C=C/[C@H](C)C(C)(C)O)[C@H]1CC[C@H]2/C(=C/C=C3C[C@@H](O)C[C@H](O)C3)CCC[C@]12C [paricalcitol]
NF-κB2 [1]
  TWEAK-induced IKK-α phosphorylation, the increase in NIK, and p52 and RelB nuclear levels: inhibited
NF-κB2 [2]; paricalcitol 750 ng/kg/day or SN52 0.7 mg/mouse/day, real time PCR
  renal CCL21A and CCL19 gene expression: reduced
NF-κB2 [2]; paricalcitol 750 ng/kg/day, immunohistochemistry, western blot
  TWEAK-induced NF-κB2 activation in the kidney: nuclear p52 and RelB accumulation in tubular epithelial cells: reduced
NF-κB2 [2]; renal nuclear protein extracts, paricalcitol 750 ng/kg/day, ELISA
  TWEAK-induced p52 and RelB DNA binding activities: inhibited
NF-κB2 [2]; total kidney proteins, paricalcitol 750 ng/kg/day, western blot
  CCL21 protein levels: reduced
